Source: PMC7553777, “Structural basis for the reaction cycle of DASS dicarboxylate transporters” (eLife, 2020)
Read-outs that look alike come from different tables or passages of the source.

Key:
LaINDY [1] = molecular target: T1, LaINDY (Lactobacillus acidophilus, UniProt Q5FKK5); assay: thermostability, SEC peak height after […] h at […] °C; type: binding
T1 construct: gene LBA0912

LaINDY [2] = molecular target: T1, LaINDY; assay: whole-cell radiolabelled uptake and exchange in E. coli BL21(DE3); type: cell-based; settings: 1 μM 3H-succinate, labelled compound, pH 7.5, 30 °C, 10 mM NaCl
[3] = molecular target: LaINDY, succinate/dicarboxylate transporter from Lactobacillus acidophilus (Lactobacillus acidophilus); assay: crystal structure
[4] = molecular target: LaINDY, succinate/dicarboxylate transporter from Lactobacillus acidophilus (Lactobacillus acidophilus); assay: SEC-MALS; Shodex KW803 column, buffer with 0.05% DDM, three angle static light scattering, refractive index and UV detectors; detergent-purified LaINDY
[5] = molecular target: LaINDY, succinate/dicarboxylate transporter from Lactobacillus acidophilus (Lactobacillus acidophilus); assay: cryo-EM structure

T1 sequence (Q5FKK5 1-488 limits assumed): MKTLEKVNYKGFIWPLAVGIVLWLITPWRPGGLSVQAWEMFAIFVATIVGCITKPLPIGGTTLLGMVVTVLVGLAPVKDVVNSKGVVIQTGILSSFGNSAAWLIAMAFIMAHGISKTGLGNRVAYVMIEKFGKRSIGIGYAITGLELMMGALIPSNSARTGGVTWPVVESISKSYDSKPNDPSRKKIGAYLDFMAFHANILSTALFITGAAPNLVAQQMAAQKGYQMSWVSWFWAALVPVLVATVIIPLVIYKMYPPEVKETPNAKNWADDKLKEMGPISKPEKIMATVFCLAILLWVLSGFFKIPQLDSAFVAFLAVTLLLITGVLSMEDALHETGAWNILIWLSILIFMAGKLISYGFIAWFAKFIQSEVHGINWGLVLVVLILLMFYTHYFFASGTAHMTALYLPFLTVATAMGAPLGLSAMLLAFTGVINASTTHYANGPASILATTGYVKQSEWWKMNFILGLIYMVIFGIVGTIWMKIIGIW

**Q.** Which “thermostability, SEC peak height after 2 h at 42 °C” value (LaINDY [1]) does the source give for `O=C(O)CC(O)C(=O)O` (racemic) [malate] here?
**A.** Following identification of malate and αKG as stabilizers

**Q.** For `O=C(O)CCC(=O)O` [succinate], which “whole-cell radiolabelled uptake and exchange in E. coli BL21(DE3)” value (LaINDY [2]) is on record?
**A.** E. coli transformed with LaINDY accumulated radioactive succinate from an external solution

**Q.** With `O=C(O)CCC(=O)C(=O)O` [αKG] as the compound, how does the “thermostability, SEC peak height after 2 h at 42 °C” value (LaINDY [1]; pH 8.0, 150 mM NaCl, 0.15% DM, 100 mM compound as printed) read?
**A.** Following identification of malate and αKG as stabilizers

**Q.** Which results are given for “LaINDY, succinate/dicarboxylate transporter from Lactobacillus acidophilus (natural protein)”?
**A.** stoichiometry N [3]: 2; stoichiometry N [4]: 2; stoichiometry N [5]: 2
